Values of other authors as cited in patent EP0656010B1, “Use of peptides causing a immune response for the preparation of medicaments to induce the suppression of the immune reaction” (priority 1992, dated 2001).

System: sujets infectés par les VIH-1
Conditions: subjects infected with HIV-1

Row | Sequence | réponse immunitaire cellulaire dirigée contre le peptide
1 | GGEFFYCNSTQL | réponse immunitaire cellulaire
2 | SVEINCTRPNNNTRKSI | réponse immunitaire cellulaire
